From patent US4663332A, “5-substituted N-alkylated tetrazoles” (Hoffman-La Roche Inc., priority 1985, dated 1987)

Legend:
[1] = system: LTD4; assay: Leukotriene (LTD4) Induced arrhythmia and Hypertension Test; type: in vivo, guinea pig (Hartley); conditions: 100 mg/kg po, 3 hour pretreatment, conscious guinea pigs; for No. Animals with Abnormal Beat/No. Tested: first two minutes after LTD4, saline control 12/12; for ↑ABP (increase in blood pressure after LTD4): saline control 30 ± 4; for ↓ABP (decrease in blood pressure after LTD4): saline control -45 ± 4
Method: (6) Leukotriene (LTD4) Induced arrhythmia and Hypertension Test
Male Hartley guinea pigs are anesthetized with sodium pentobarbital and prepared for monitoring direct blood pressure and injecting drugs intravenously by catheterizing the right carotid artery and right jugular vein. Blood pressure, heart rate, and Lead II ECG are monitored in the conscious animal 24 hours later.
The oral activity of a drug is evaluated by pretreating animals 3 hours before the LTD4 challenge.
Intravenous administration of LTD4 2.5 μg/kg) is associated with an increase in blood pressure lasting approximately 1-2 minutes followed by a decrease lasting approximately 5-15 minutes. Abnormal beats consisting of premature ventricular contractions, ST elevation or depression, atrioventricular conduction block, or dissociated p waves begin during the rise in blood pressure; the peak effect occurs approximately 40 seconds after LTD4. The number of animals with abnormal beats within the first two minutes after the injection of LTD4 over the total number of animals tested is presented in Table III. During the hypotensive response, the animal usually collapses during the 2nd or 3rd minute after LTD4 and regains posture approximately 10 minutes after LTD4.

[2] = system: PAF; assay: Inhibition of PAF-Induced Rat Skin Wheal Test (Inhib. of PAF Skin Wheal); type: in vivo, Sprague-Dawley rats; conditions: 5 mg/kg i.v., 5 ng PAF intradermally
Method: (4) Inhibition of PAF-Induced Rat Skin Wheal Test (Inhib. of PAF Skin Wheal)
This test evaluates the ability of compounds to inhibit PAF-induced increases in vascular permeability in the skin of Sprague-Dawley rats. PAF induces a dose-dependent skin wheal response in this system over a dose range of 0.0001 to 1 μg/0.05 ml injection. The profound vasoactive activity of PAF is emphasized by the fact that the maximum skin wheal response is considerably greater than that obtained with LTE and an EC50 response is elicited at a 10-fold lower dose. […] Thirty minutes later the animals are sacrificed and the increase in vascular permeability induced by the migration of dye into the injection point in the skin is determined. For this purpose, rats are sacrificed by cervical dislocation,the dorsal skin is removed, the long and short axis of each animal is measured with a metric vernier caliper and the average diameter is obtained. Results obtained are measured as % of migration of dye as compared to untreated animals. More specifically, results are measured as a percent inhibition of the diameters of the wheals formed in a treated animals as compared to untreated animals. […]

[3] = system: PAF; assay: Inhibition of PAF Induced Guinea Pig Bronchoconstriction Test (Inhib. of PAF Broncho.); type: in vivo, guinea pig (Hartley strain); conditions: Cavia porcellus, iv; 1 mg/kg i.v. (1 min. pretreat)
Method: (3) Inhibition of PAF Induced Guinea Pig Bronchoconstriction Test (Inhib. of PAF Broncho.)
Male guinea pigs (Hartley strain) weighing 300 to 500 g are anesthetized with urethane (2 g/kg) intraperitoneally and a polyethylene cannula is inserted into the jugular vein for drug administration. Tracheal pressure is recorded from a cannula inserted in the trachea and connected to a Statham pressure transducer. Propranolol (0.1 mg/kg) is administered intravenously five minutes before challenge with synthetic PAF, the animal's skeletal muscles are then paralyzed with succinylcholine (1.2 mg/kg i.v.), and the animal is respirated using a Harvard small animal respirator operating at 40 breaths/min and 2.5 cc stroke volume. Under these conditions PAF induces a dose-dependent increase in ventilatory pressure over a dose range of 0.5 to 5 μg/kg i.v. For screening purposes animals are challenged with a single dose of PAF (10 μg/kg i.v.).
The peak increase in ventilatory pressure (cm H2 O) is recorded for three control animals and five drug-treated animals and the percent inhibition determined from the following formula [formula] Results obtained with representative compounds of the invention in this test are summarized hereinafter in Tables I and II.

[4] = target: T1, PAF binding to dog platelets (Canis lupus familiaris, UniProt A0A8I3NSH0); assay: PAF Radioreceptor Binding Assay (PAF Binding); conditions: inhibition of 3H-PAF binding to dog platelets, 10 min, room temperature
T1 construct: from tissue; host or cells: washed platelets from citrate-treated dog blood
T1 sequence (A0A8I3NSH0 1-343): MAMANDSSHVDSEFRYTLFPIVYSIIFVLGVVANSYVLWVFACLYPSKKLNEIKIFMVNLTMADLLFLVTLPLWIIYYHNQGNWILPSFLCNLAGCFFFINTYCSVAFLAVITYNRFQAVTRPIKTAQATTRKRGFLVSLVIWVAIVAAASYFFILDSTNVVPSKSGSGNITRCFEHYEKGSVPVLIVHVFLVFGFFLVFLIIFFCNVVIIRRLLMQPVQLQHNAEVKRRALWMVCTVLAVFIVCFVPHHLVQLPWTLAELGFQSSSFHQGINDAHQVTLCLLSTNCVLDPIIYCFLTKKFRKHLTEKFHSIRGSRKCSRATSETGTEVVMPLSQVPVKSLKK
Method: (1) PAF Radioreceptor Binding Assay (PAF Binding)
Platelet rich plasma is prepared by centrifugation of citrate-treated dog blood. Acidification to pH 6.5 with 0.15M citric acid and centrifugation for 10 minutes at 1000×g yields a platelet pellet which is then washed by resuspension in EDTA-Phosphate Buffered Saline (PBS) and recentrifuged. The washed platelet preparation is adjusted to 2×10^7 platelets/50 μl in 0.1% bovine serum albumin-PBS.
To a 400 μl microfuge tube containing 50 μl silicone oil (specific gravity 1.023) is added buffer, PAF standard or analog, or an extract to bring the aqueous volume to 150 μl. 50 μl of ^3 H-PAF (10,000 cpm, 45 Ci/mM) is added followed by 2×10^7 dog platelets. After mixing, incubating for 10 minutes at room temperature, and centrifuging for 1 minute in a Beckman Microfuge B (8000×g), the pellet is removed by clipping off the tip of the tube, the platelets are solubilized with 200 μl of 50% methanol and counted in 10 ml of Aquasol. […] Results obtained with representative copounds of the present invention in this assay are summarized hereinafter in Tables I and II. IC50 is drug concentration (μMolar) which inhibits PAF binding to dog platelets by 50%.

[5] = target: T2, TXA2 synthase (Homo sapiens, UniProt P24557); assay: Thromboxane Synthase Inhibition, In Vitro (TXA2 Synth. Inhib.); type: biochemical; conditions: human platelet microsomes, 10 μM 14C-PGH2, 22° C., 2 min
T2 construct: using microsomal fractions from human platelets as enzyme source; from tissue; host or cells: microsomal fractions from human platelets
T2 sequence (P24557 1-533): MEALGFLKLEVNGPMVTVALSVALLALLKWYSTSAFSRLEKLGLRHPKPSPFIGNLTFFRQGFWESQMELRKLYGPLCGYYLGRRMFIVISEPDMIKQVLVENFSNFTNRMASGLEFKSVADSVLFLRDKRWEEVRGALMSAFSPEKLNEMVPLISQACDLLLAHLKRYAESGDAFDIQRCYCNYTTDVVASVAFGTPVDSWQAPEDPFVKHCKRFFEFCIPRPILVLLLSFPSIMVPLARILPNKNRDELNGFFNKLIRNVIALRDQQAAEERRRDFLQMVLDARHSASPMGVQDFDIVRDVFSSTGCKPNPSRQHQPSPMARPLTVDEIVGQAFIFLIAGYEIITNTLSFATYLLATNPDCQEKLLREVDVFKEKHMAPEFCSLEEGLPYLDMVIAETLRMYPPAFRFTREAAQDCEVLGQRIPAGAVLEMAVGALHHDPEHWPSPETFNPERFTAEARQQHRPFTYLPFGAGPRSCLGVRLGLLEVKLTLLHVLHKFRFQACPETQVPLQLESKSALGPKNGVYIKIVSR
Method: (2) Thromboxane Synthase Inhibition, In Vitro (TXA2 Synth. Inhib.)
TXA2 synthase activity is measured by following the conversion of ^14 C-prostaglandin endoperoxide (PGH2) to ^14 C-thromboxane A2 (TXA2) using microsomal fractions from human platelets as enzyme source. In the aqueous incubation medium, the TXA2 decomposes rapidly into TXB2. The amount of TXA2 synthase is adjusted so that under the conditions of the assay approximately 80-90% of the substrate, PGH2, is converted to product in control tubes. To prepare ^14 C-PGH2, ^14 C-AA (50-60 mCi/mmole; Rose Chem.) is incubated with sheep seminal vesicular gland microsomes for 1.5 minutes at 37° C. and then the ^14 C-PGH2 is extracted with diethylether, purified on columns oof Sephadex LH-20 or silicic acid, and stored in acetone at -70° C. Incubations are done as follows. Sufficient ^14 C-PGH2 to yield a final substrate concentration of 10 μM (30,000 cpm) is added to the incubation tubes and then the acetone is removed under nitrogen. The tubes are placed in an ice bath and then 215 μl of ice cold phosphate buffered saline, 10 μl of ethanol (control) or of test drug in ethanol, and 25 μl of the microsomal suspension are added with mixing in that order as rapidly as possible. The tubes are incubated at 22° C. for 2 minutes, the reaction is stopped and then the radioactive products and the unconverted PGH2 are extracted and analyzed by thin layer chromatography. […] The amount of ^14 C-PGH2 converted to products was used as a measure of TXA2 synthase activity. Inhibitors were tested initially at a final concentration 100 μM. Results obtained with representative compounds of the present invention in this assay are summarized hereafter in Tables I and II. IC50 is the drug concentration (μMolar) which inhibits TXA2 activity by 50%.

CCCc1c(OCCCCCc2nnnn2CCCc2cccnc2)ccc(C(C)=O)c1O [5 3, 1-[2-hydroxy-3-propyl-4-[5-[1-[3-(3-pyridinyl)propyl]-1H-tetrazol-5-yl]pentyloxy]phenyl]ethanone]
No. Animals with Abnormal Beat/No. Tested [1]: 0/4 | ↑ABP (increase in blood pressure after LTD4) [1]: 13 ± 8 Δmm Hg | ↓ABP (decrease in blood pressure after LTD4) [1]: -20 ± 9 Δmm Hg

CCCc1c(OCCCc2nnnn2CCCc2cccnc2)ccc(C(C)=O)c1O [3 3, 1-[2-Hydroxy-3-propyl-4-[3-[1-[3-(3-pyridinyl)propyl]-1H-tetrazol-5-yl]propoxy]phenyl]ethanone]
No. Animals with Abnormal Beat/No. Tested [1]: 1/4 | ↑ABP (increase in blood pressure after LTD4) [1]: 14 ± 5 Δmm Hg | ↓ABP (decrease in blood pressure after LTD4) [1]: -23 ± 10 Δmm Hg

CCCc1c(OCCCCc2nnnn2CCCc2cccnc2)ccc(C(C)=O)c1O [H H 4 3 3-pyridyl, 1-[2-Hydroxy-3-propyl-4-[4-[1-[3-(3-pyridinyl)propyl]-1H-tetrazol-5-yl]butoxy]phenyl]ethanone]
inhibition of PAF skin wheal [2]: 65±3% | inhibition in vivo at 1 mg/kg [3]: 99% | IC50 [4]: 125 nM | IC50 [5]: 100 to 1000 nM
